According to the NIST ThermoML archive (doi:10.1021/je2000827):

Details: Liquid; for vapor or sublimation pressure: Closed cell (Static) method

CCF [fluoroethane]
Details | mass density [kg/m3] | vapor or sublimation pressure [kPa]
231.49 K | 822.41 | 83.13
234.21 K | 817.05 | 94.43
236.99 K | 812.28 | 107.29
239.38 K | 807.75 | 119.32
242.26 K | 802.85 | 135.31
244.45 K | 798.89 | 148.5
247.17 K | 794.45 | 166.36
249.55 K | 790.12 | 183.2
252.04 K | 784.97 | 202.06
254.66 K | 781.18 | 223.94
256.86 K | 777.42 | 243.51
259.79 K | 772.38 | 271.62
261.53 K | 769.17 | 289.32
264.92 K | 762.96 | 326.52
267.46 K | 758.21 | 356.63
270.02 K | 753.26 | 389.01
272.57 K | 748.47 | 423.54
275.14 K | 743.66 | 460.69
277.69 K | 738.45 | 499.68
280.25 K | 734.48 | 542.23
282.93 K | 728.08 | 587.98
285.36 K | 724.27 | 633.63
288.87 K | 715.99 | 701.87
290.5 K | 713.52 | 736.6
293.49 K | 706.47 | 801.35
296.62 K | 699.98 | 874.83
298.35 K | 696.18 | 917.13
301.4 K | 689.76 | 996.4
303.42 K | 685.09 | 1051
305.56 K | 680.24 | 1111.4
308.36 K | 673.98 | 1195.1
311.02 K | 667.87 | 1278.7
313.56 K | 661.98 | 1362.7
316.06 K | 655.89 | 1439.2
318.06 K | 650.99 | 1511.1
320.34 K | 645.22 | 1596.5
322.83 K | 638.81 | 1683.8
325.41 K | 632.16 | 1800.8
328.04 K | 625.04 | 1922.5
330.58 K | 617.82 | 2035.8
332.88 K | 609.12 | 2105.8
335.61 K | 599.54 | 2262.5
337.83 K | 591.63 | 2369.9
340.19 K | 583.39 | 2489.5
343.01 K | 573.25 | 2639

FC(F)Cl [chlorodifluoromethane]
Details | mass density [kg/m3] | vapor or sublimation pressure [kPa]
237.03 K | 1396.88 | 125.48
242.05 K | 1380.58 | 156.52
248.23 K | 1361.7 | 202.41
250.79 K | 1352.02 | 223.86
257.12 K | 1333.18 | 285.6
262.27 K | 1317.65 | 343.76
267.03 K | 1302.17 | 405.65
272.37 K | 1283.62 | 485.71
276.67 K | 1268.86 | 558.12
283.21 K | 1244.97 | 682.58
287.52 K | 1231.04 | 774.37
294.06 K | 1206.17 | 932.29
298.34 K | 1188.92 | 1047.7
303.44 K | 1168.12 | 1201.9
306.98 K | 1156.73 | 1316.4
